Assays:
[1] = test system: Adjuvant-Induced Arthritis in Rats; experiment: Established Adjuvant-Induced Arthritis in Rats; type: in vivo, Charles River Lewis male rats; conditions: for ED50: 168 h, oral gavage daily for 7 days, ED50% decrease from control paw volume
Experimental: A procedure for detecting and comparing the antiinflammatory activity of compounds in this series and standard drugs for which there is a good correlation with human efficacy is the adjuvant-induced arthritis test in rats.
(§1) The test procedures employed for determining antiinflammatory and analgesic activity are described below with test data included in Tables VII and VIII.
Charles River Lewis male rats (130-150 grams) are injected subcutaneously in plantar area of the right hind paw with 0.1 ml of adjuvant (Difco heat-killed, lyophilized Mycobacterium butyricum suspended in mineral oil 5 mg/ml). 20 Non-arthritic controls are injected with mineral oil. The animals are held for 2 weeks to allow development of arthritis. Paw volumes (uninjected, left hind paw) are measured and the adjuvant injected rats are culled and distributed to treatment groups of 10 of equal disease severity. Non-arthritic controls are distributed to 2 groups of 10. The rats are given oral doses of compound or PVA-Acacia (Polyvinyl Alcohol 1%, Gum Acacia, U.S.P. 5%, Methylparaben 0.5%) (10 ml/kg) by gavage on that day and on the 6 following days. One day after the last dose the paw volumes (uninjected, left hind paw) are measured using a Ugo Basile Volume Differential Meter Model 7101. [formula]
Dose-response regression lines of the % decrease are plotted on semi-log paper by visual fit and the ED50% decrease from control paw volume is determined by inspection.

[2] = test system: phenylquinone writhing in mice; experiment: Phenylquinone Writhing Test (analgesic activity); type: in vivo, female white mice; conditions: Mus musculus, oral, phenylquinone i.p., effective analgesic dose for 50% of the mice
Text: A procedure for detecting and comparing the analgesic activity of compounds in this series and standard drugs for which there is a good correlation with human efficacy is the phenylquinone writhing test.
as §1
The phenylquinone writhing test, modified from Siegmund, et al., Proc. Soc. Exp. Biol. Med. 95, 729 (1957), was employed. A test compound suspended in 1% methylcellulose was given orally to fasted (17-21 hours) female white mice, 5-20 animals per double blind test. Aqueous (0.01% phenyl-p-benzoquinone) phenylquinone was injected intraperitoneally at 24 minutes later using 0.20 ml per mouse. […] The effective analgesic dose for 50% of the mice (ED50) was calculated by the moving average method of Thompson, W. R., Bact. Rev. 11, 115-145 (1947).

[3] = Rattus norvegicus, Table VII, oral, read-out: percent reduction in paw volume at the indicated dose

Row | Structure (SMILES) | ED50 ([1]; Rattus norvegicus, Table VII) [mg/kg] | ED50 ([2]; Table VII) [mg/kg] | further results
1 | CSc1cc(-c2ccc(F)cc2)c(-c2ccc(Cl)cc2)[nH]1 [Example 44] | 25 | > 108 | 
2 | CSc1cc(-c2ccc(Cl)cc2)c(-c2ccccc2)[nH]1 [Example 48] |  | > 108 | inhibition in vivo at 45 mg/kg ([1]; Rattus norvegicus, Table VII, oral, dose 45 mg/kg, read-out: percent reduction in paw volume at the indicated dose): 22%
3 | Fc1ccc(-c2cc(SC(F)(F)F)[nH]c2-c2cccs2)cc1 [Example 27] |  |  | ED50 ([1]; Rattus norvegicus, Table VIII): ~27 mg/kg; ED50 ([2]; Table VIII): > 108 mg/kg
4 | O=S(=O)(c1cc(-c2ccc(Cl)cc2)c(-c2ccc(Cl)cc2)[nH]1)C(F)(F)F [Example 58] | 1.7 | < 130 | 
5 | Fc1ccc(-c2cc(SC(F)(F)F)[nH]c2-c2ccc(F)cc2)cc1 [Example 3, 4,5-bis(4-fluorophenyl)-2-(trifluoromethylthio)pyrrole] | 1.5 | > 135 | 
6 | COc1ccc(-c2[nH]c(S(C)(=O)=O)cc2-c2ccc(F)cc2)cc1 [Example 68] |  | 18 | inhibition in vivo at 27 mg/kg [1, 3]: 34%
7 | FC(F)(F)Sc1cc(-c2cccc(Cl)c2)c(-c2cccc(Cl)c2)[nH]1 [Example 25] |  |  | ED50 ([1]; Rattus norvegicus, Table VIII): 25 mg/kg; ED50 ([2]; Table VIII): > 108 mg/kg
8 | Cc1ccc(-c2cc(S(C)(=O)=O)[nH]c2-c2ccc(C)cc2)cc1 [Example 72] | 90 | 7.2 | 
9 | CN(C)c1ccc(-c2[nH]c(SC(F)(F)F)cc2-c2ccc(F)cc2)cc1 [Example 22] |  |  | ED50 ([1]; Rattus norvegicus, Table VIII): 8.8 mg/kg; ED50 ([2]; Table VIII): > 108 mg/kg
10 | CS(=O)(=O)c1cc(-c2ccc(F)cc2)c(-c2ccc(F)cc2)[nH]1 [Example 64] |  | > 108 | inhibition in vivo at 27 mg/kg [1, 3]: 25%
11 | CCS(=O)(=O)c1cc(-c2ccc(Cl)cc2)c(-c2ccc(Cl)cc2)[nH]1 [Example 65] |  | > 108 | inhibition in vivo at 27 mg/kg [1, 3]: 23%
12 | Fc1ccccc1-c1cc(SC(F)(F)F)[nH]c1-c1ccccc1F [Example 19] |  |  | Adjuvant Arthritis, value in parenthesis (percent reduction in paw volume/dose) ([1]; Table VIII, oral, dose 45 (unit not given)): 29%; ED50 ([2]; Table VIII): > 108 mg/kg
13 | CCOc1ccc(-c2[nH]c(SC(F)(F)F)cc2-c2ccc(F)cc2)cc1 [Example 5] |  | > 130 | inhibition in vivo at 27 mg/kg [1, 3]: 19%
14 | COc1ccc(-c2cc(SC)[nH]c2-c2ccc(OC)cc2)cc1 [Example 36] | 5 | > 130 | 
15 | Fc1ccc(-c2cc(SC(F)(F)F)[nH]c2-c2ccc(Br)cc2)cc1 [Example 21] |  |  | ED50 ([1]; Rattus norvegicus, Table VIII): 3.5 mg/kg; ED50 ([2]; Table VIII): > 108 mg/kg
16 | Cc1c(SC(F)(F)F)[nH]c(-c2ccc(Cl)cc2)c1-c1ccc(Cl)cc1 [Example 30] |  |  | ED50 ([1]; Rattus norvegicus, Table VIII): 2 mg/kg; ED50 ([2]; Table VIII): > 108 mg/kg
17 | COc1ccc(-c2cc(S(C)(=O)=O)[nH]c2-c2ccc(OC)cc2)cc1 [Example 54] | 1 | 16 | 
18 | Fc1ccc(-c2cc(SC(F)(F)F)[nH]c2-c2cccnc2)cc1 [Example 28] |  |  | ED50 ([1]; Rattus norvegicus, Table VIII): 0.04 mg/kg; ED50 ([2]; Table VIII): > 135 mg/kg
19 | Cc1c(SC(F)(F)F)[nH]c(-c2ccc(F)cc2)c1-c1ccc(F)cc1 [Example 31] |  |  | ED50 ([1]; Rattus norvegicus, Table VIII): 0.6 mg/kg; ED50 ([2]; Table VIII): > 135 mg/kg
20 | Fc1ccc(-c2[nH]c(SC(F)(F)F)cc2-c2ccc(Cl)cc2)cc1 [Example 6] | 2 | > 108 | 
21 | CCS(=O)(=O)c1cc(-c2ccc(OC)cc2)c(-c2ccc(OC)cc2)[nH]1 [Example 55] | 9 | 19 | 
22 | CSc1cc(-c2ccc(Cl)cc2)c(-c2ccc(F)cc2)[nH]1 [Example 43] | 20 | > 108 | 
23 | COc1ccc(-c2[nH]c(SC(F)(F)F)cc2-c2ccccc2)cc1 [Example 20] |  |  | Adjuvant Arthritis, value in parenthesis (percent reduction in paw volume/dose) ([1]; Table VIII, oral, dose 27 (unit not given)): 44%; ED50 ([2]; Table VIII): 22 mg/kg
24 | CSc1cc(-c2ccc(Cl)cc2)c(-c2ccc(Cl)cc2)[nH]1 [Example 38] | 10 | > 108 | 
25 | COc1ccc(-c2cc(S(=O)(=O)C(F)(F)F)[nH]c2-c2ccc(OC)cc2)cc1 [Example 53] |  | 78 | inhibition in vivo at 9 mg/kg [1, 3]: 36%
26 | CC(=O)n1c(SC(F)(F)F)cc(-c2ccc(F)cc2)c1-c1ccc(F)cc1 [Example 73, 1-Acetyl-4,5-bis(4-fluorophenyl)-2-(trifluoromethylthio)pyrrole] |  |  | ED50 ([1]; Rattus norvegicus, Table VIII): 4 mg/kg; ED50 ([2]; Table VIII): > 108 mg/kg
27 | COc1ccc(-c2[nH]c(SC(F)(F)F)cc2-c2ccc(Cl)cc2)cc1 [Example 9] | 6 | > 108 | 

Row | Structure (SMILES) | ED50 ([1]; Rattus norvegicus, Table VII) [mg/kg] | ED50 ([2]; Table VII) [mg/kg] | further results
28 | O=S(=O)(c1ccccc1)n1c(SC(F)(F)F)cc(-c2ccc(F)cc2)c1-c1ccc(F)cc1 [Example 77] |  |  | Adjuvant Arthritis, value in parenthesis (percent reduction in paw volume/dose) ([1]; Table VIII, oral, dose 9.0 (unit not given)): 37%
29 | Cc1ccc(-c2cc(SC(F)(F)F)[nH]c2-c2ccc(C)cc2)cc1 [Example 12] | 25 | 16.2 | 
30 | Cn1c(SC(F)(F)F)cc(-c2ccc(F)cc2)c1-c1ccc(F)cc1 [Example 74, 1-Methyl-4,5-bis(4-fluorophenyl)-2-(trifluoromethylthio)pyrrole] |  |  | ED50 ([1]; Rattus norvegicus, Table VIII): 1.1 mg/kg; ED50 ([2]; Table VIII): > 108 mg/kg
31 | FC(F)(F)Sc1cc(-c2ccc(Cl)cc2)c(-c2ccc(Cl)cc2)[nH]1 [Example 4] | 2.8 | > 130 | 
32 | FC(F)(F)Sc1cc(-c2ccccc2)c(-c2ccc(Cl)cc2)[nH]1 [Example 24] |  |  | ED50 ([1]; Rattus norvegicus, Table VIII): 10 mg/kg; ED50 ([2]; Table VIII): > 135 mg/kg
33 | O=S(=O)(c1cc(-c2ccccc2)c(-c2ccccc2)[nH]1)C(F)(F)F [Example 51] |  | 15 | inhibition in vivo at 25 mg/kg [1, 3]: 46%
34 | CS(=O)(=O)c1cc(-c2ccc(Cl)cc2)c(-c2ccc(F)cc2)[nH]1 [Example 66] | 27 | > 135 | 
35 | CCCc1c(SC(F)(F)F)[nH]c(-c2ccc(F)cc2)c1-c1ccc(F)cc1 [Example 33] |  |  | ED50 ([1]; Rattus norvegicus, Table VIII): 6.5 mg/kg; ED50 ([2]; Table VIII): > 108 mg/kg
36 | CS(=O)(=O)c1cc(-c2ccc(Cl)cc2)c(-c2ccc(Cl)cc2)[nH]1 [Example 62] | 1.5 | > 108 | 
37 | COc1ccc(-c2cc(SC(F)(F)F)[nH]c2-c2cccs2)cc1 [Example 18] |  |  | ED50 ([1]; Rattus norvegicus, Table VIII): ~100 mg/kg; ED50 ([2]; Table VIII): 78 mg/kg
38 | CSc1cc(-c2ccc(C)cc2)c(-c2ccc(C)cc2)[nH]1 [Example 49] | 50 | > 135 | 
39 | Fc1ccc(-c2cc(SC(F)(F)F)[nH]c2-c2ccc(Cl)cc2)cc1 [Example 7] | 1.1 | > 108 | 
40 | CS(=O)(=O)c1ccc(-c2[nH]c(SC(F)(F)F)cc2-c2ccc(F)cc2)cc1 [Example 29] |  |  | ED50 ([1]; Rattus norvegicus, Table VIII): 0.15 mg/kg; ED50 ([2]; Table VIII): > 108 mg/kg
41 | FC(F)(F)Sc1cc(-c2ccccc2)c(-c2cccnc2)[nH]1 [Example 17] |  |  | ED50 ([1]; Rattus norvegicus, Table VIII): 1.4 mg/kg; ED50 ([2]; Table VIII): > 108 mg/kg
42 | CS(=O)(=O)c1cc(-c2ccc(F)cc2)c(-c2ccc(Cl)cc2)[nH]1 [Example 67] | 50 | 38 | 
43 | FC(F)C(F)(F)Sc1cc(-c2ccc(Cl)cc2)c(-c2ccc(Cl)cc2)[nH]1 [Example 40] |  | > 108 | inhibition in vivo at 9 mg/kg [1, 3]: 36%
44 | [O-][S+](c1cc(-c2ccccc2)c(-c2ccccc2)[nH]1)C(F)(F)F (stereo not drawn) [Example 52] |  | 30 | inhibition in vivo at 25 mg/kg [1, 3]: 31%
45 | Fc1cccc(-c2cc(SC(F)(F)F)[nH]c2-c2cccc(F)c2)c1 [Example 13] |  | > 108 | inhibition in vivo at 27 mg/kg [1, 3]: 33%
46 | CSc1cc(-c2ccc(F)cc2)c(-c2ccc(F)cc2)[nH]1 [Example 41] |  | > 108 | inhibition in vivo at 27 mg/kg [1, 3]: 19%
47 | COc1ccc(-c2cc(SC(F)(F)F)[nH]c2-c2ccc(OC)cc2)cc1 [Example 2, 4,5-Bis(4-methoxyphenyl)-2-(trifluoromethylthio)pyrrole] | 1.7 | 30 | 
48 | FC(F)(F)Sc1cc(-c2ccc(Cl)cc2)c(-c2ccccc2)[nH]1 [Example 11] | 25 | > 108 | 
49 | [O-][S+](c1cc(-c2ccc(F)cc2)c(-c2ccc(F)cc2)[nH]1)C(F)(F)F (stereo not drawn) [Example 57] | 1 | > 135 | 
50 | CCOc1ccc(-c2[nH]c(S(=O)(=O)C(F)(F)F)cc2-c2ccc(F)cc2)cc1 [Example 60] | 16 | > 130 | 
51 | FC(F)(F)Sc1cc(-c2ccccc2)c(-c2ccccc2)[nH]1 [Example 1, 4,5-Diphenyl-2-(trifluoromethylthio)pyrrole] |  | > 135 | inhibition in vivo at 25 mg/kg [1, 3]: 36%
52 | FC(F)(F)Sc1cc(-c2ccccc2)c(-c2ccc(Cl)c(Cl)c2)[nH]1 [Example 16] | 2.5 | > 108 | 
53 | CSc1cc(-c2ccc(F)cc2)c(-c2ccccc2)[nH]1 [Example 47] |  |  | inhibition in vivo at 200 mg/kg ([1]; Rattus norvegicus, Table VII, oral, dose 200 mg/kg, read-out: percent reduction in paw volume at the indicated dose): 46%
54 | COc1ccc(-c2[nH]c(SC(F)(F)F)c(C)c2-c2ccc(OC)cc2)cc1 [Example 32] |  |  | ED50 ([1]; Rattus norvegicus, Table VIII): 2.2 mg/kg
